Results published in ChEMBL document CHEMBL1143399, “A small-molecule nitroimidazopyran drug candidate for the treatment of tuberculosis” (Nature, 2000).
Calls of active or inactive are those of the source. The calls are words filed in the database; no cut-off is given here.

Legend:
Format in all cases: functional, organism-based
Conditions in all cases: variant bovis BCG
[1] = test system: Mycobacterium tuberculosis; experiment: Inhibition of protein synthesis in log phase Mycobacterium bovis BCG assessed as [35S] incorporation after 3 hrs
[2] = test system: Mycobacterium tuberculosis; experiment: Inhibition of nucleic acid synthesis in Mycobacterium bovis BCG
[3] = test system: Mycobacterium tuberculosis; experiment: Inhibition of lipid synthesis in log phase Mycobacterium bovis BCG assessed as [14C] acetate incorporation after 3 hrs by chromatography

SMILES: O=[N+]([O-])c1cn2c(n1)OC[C@@H](OCc1ccc(OC(F)(F)F)cc1)C2 [PRETOMANID]
- Activity [1]: Active
- Activity [2]: inactive
- Activity [3]: inactive
